Data published in patent US20150026842A1, “METHOD OF CONTROLLING SUDDEN DEATH SYNDROME WITH FLUTRIAFOL” (CHEMINOVA A/S, priority 2013, published 2015).

Assays:
[1] = tested on: Sudden Death Syndrome (SDS); test: Field trial: flutriafol applied pre-emergence to soybean for control of Sudden Death Syndrome; type: in vivo
Experimental: The determination of the efficacy and selectivity of flutriafol fungicide when applied pre-emergence to soybean for control of Sudden Death Syndrome (SDS) was tested in the following example:
The experiment was conducted in a Drummer silty clay loam soil with a pH of 6.8 and 3.0% organic matter. The experiment was set up as a randomized complete block with four replications. Plots were four 30 inch rows or a total of 10 ft. wide by 40 ft. long. Plot site was conventionally tilled and the trial was established on May 15, 2013, by planting NK S36-B6, a sudden death syndrome susceptible soybean variety. Seed was planted 1.5 inches deep and the seeding rate was 140,000 seeds/A. Topguard (a commercially available flutriafol SC formulation comprising 125 g/l) was applied at planting in-furrow in a 3-5 inch T-band perpendicular to the row with Teejet 4001E nozzles in a spray volume of 2 GPA. Topguard rates applied were 0.13, 0.195, 0.26 lb ai/acre (corresponding to 145.7, 218.6, 291.4 g ai/ha, respectively). These correspond to rates of 16, 24, or 32 fl oz of product/acre, respectively. One treatment of a 3-5 inch band of 32 fl oz/A Topguard was applied on May 21 as an ‘At Cracking’ application immediately prior to crop emergence. Trial was inoculated with SDS on sterile sorghum media that was applied in-furrow with a gandy box at planting at a rate of 25 ml per 20 ft of row. Data was collected from the two center rows from each plot.
Drip irrigation was installed so the trial had no moisture stress throughout the season. On August 12, 19 and 30, soybean sudden death syndrome (SDS) incidence (0-100%) and severity (0-9) were evaluated. An SDS disease index (SDS DX) was created by multiplying the % Incidence by the % Severity and dividing by 9. Soybeans were harvested on October 10 and yields were calculated and adjusted to bu/A at 13% moisture.

[2] = tested on: Fusarium virguliforme; test: Mycelial colony growth of Fusarium virguliforme on flutriafol-amended PDA; type: cell-based
Experimental: Inhibition of Fusarium virguliforme was tested in the following example:
The flutriafol composition used in the example was TOPGUARD (125 g/L flutriafol SC). Each pathogen was grown out on fresh potato dextrose agar (commercial PDA), assessed and used to seed 2× autoclaved rice for inoculums development. At 7-10 days, two infested rice grains of each pathogen (2 per pathogen type) was placed at equal distances on flutriafol-amended PDA and incubated at 27-29° C. Mycelial colony diameter from each rice grain was measured at 1, 3, 5 and 7 days from grain placement. The included tables and data sets illustrate the differences in mycelia growth in response to various concentrations of the fungicide for one of the SDS pathogen types, Fusarium virguliforme.

[3] = applied in a T-Band, August 12 and August 19

OC(Cn1cncn1)(c1ccc(F)cc1)c1ccccc1F (racemic) [flutriafol, (RS)-2,4′-difluoro-α-(1H-1,2,4-triazol-1-ylmethyl)benzhydryl alcohol]
soybean yield ([1]; T-band at 16, 24 or 32 oz/A, compared to the 'At Cracking' application and the untreated check): trend to higher soybean yield | Disease Index scores [1, 3]: numerically lower | SDS Incidence [1, 3]: numerically lower | Dia (mm) 1 day ([2]; 0.01 ppm in PDA): 0 mm | Dia (mm) 3 days ([2]; 0.01 ppm in PDA): 10.4 mm | Dia (mm) 5 days ([2]; 0.01 ppm in PDA): 15.6 mm | Dia (mm) 7 days ([2]; 0.01 ppm in PDA): 19.6 mm | Dia (mm) 1 day ([2]; 0.1 ppm in PDA): 0 mm | Dia (mm) 3 days ([2]; 0.1 ppm in PDA): 10.1 mm | Dia (mm) 5 days ([2]; 0.1 ppm in PDA): 16.4 mm | Dia (mm) 7 days ([2]; 0.1 ppm in PDA): 19.8 mm | Dia (mm) 1 day ([2]; 1 ppm in PDA): 0 mm | Dia (mm) 3 days ([2]; 1 ppm in PDA): 9.6 mm | Dia (mm) 5 days ([2]; 1 ppm in PDA): 15.3 mm | Dia (mm) 7 days ([2]; 1 ppm in PDA): 20 mm | Dia (mm) 1 day ([2]; 10 ppm in PDA): 0 mm | Dia (mm) 3 days ([2]; 10 ppm in PDA): 7.5 mm | Dia (mm) 5 days ([2]; 10 ppm in PDA): 13.9 mm | Dia (mm) 7 days ([2]; 10 ppm in PDA): 18.1 mm | Dia (mm) 1 day ([2]; 100 ppm in PDA): 0 mm | Dia (mm) 3 days ([2]; 100 ppm in PDA): 0 mm | Dia (mm) 5 days ([2]; 100 ppm in PDA): 0 mm | Dia (mm) 7 days ([2]; 100 ppm in PDA): 3 mm | Dia (mm) 1 day ([2]; 250 ppm in PDA, 27-29° C.): 0 mm | Dia (mm) 3 days ([2]; 250 ppm in PDA): 0 mm | Dia (mm) 5 days ([2]; 250 ppm in PDA): 0 mm | Dia (mm) 7 days ([2]; 250 ppm in PDA): 0 mm
